Results published in article PMC8596838, “Xylose‐Configured Cyclophellitols as Selective Inhibitors for Glucocerebrosidase” (Chembiochem, 2021).

Molecular target: T1, GBA2 E527G mutant and E527G/D667G double mutant (Homo sapiens, UniProt Q9HCG7, E527G)
T1 construct: expressed in transfected cells; host or cells: HEK293T
T1 sequence (Q9HCG7 1-927 E527G): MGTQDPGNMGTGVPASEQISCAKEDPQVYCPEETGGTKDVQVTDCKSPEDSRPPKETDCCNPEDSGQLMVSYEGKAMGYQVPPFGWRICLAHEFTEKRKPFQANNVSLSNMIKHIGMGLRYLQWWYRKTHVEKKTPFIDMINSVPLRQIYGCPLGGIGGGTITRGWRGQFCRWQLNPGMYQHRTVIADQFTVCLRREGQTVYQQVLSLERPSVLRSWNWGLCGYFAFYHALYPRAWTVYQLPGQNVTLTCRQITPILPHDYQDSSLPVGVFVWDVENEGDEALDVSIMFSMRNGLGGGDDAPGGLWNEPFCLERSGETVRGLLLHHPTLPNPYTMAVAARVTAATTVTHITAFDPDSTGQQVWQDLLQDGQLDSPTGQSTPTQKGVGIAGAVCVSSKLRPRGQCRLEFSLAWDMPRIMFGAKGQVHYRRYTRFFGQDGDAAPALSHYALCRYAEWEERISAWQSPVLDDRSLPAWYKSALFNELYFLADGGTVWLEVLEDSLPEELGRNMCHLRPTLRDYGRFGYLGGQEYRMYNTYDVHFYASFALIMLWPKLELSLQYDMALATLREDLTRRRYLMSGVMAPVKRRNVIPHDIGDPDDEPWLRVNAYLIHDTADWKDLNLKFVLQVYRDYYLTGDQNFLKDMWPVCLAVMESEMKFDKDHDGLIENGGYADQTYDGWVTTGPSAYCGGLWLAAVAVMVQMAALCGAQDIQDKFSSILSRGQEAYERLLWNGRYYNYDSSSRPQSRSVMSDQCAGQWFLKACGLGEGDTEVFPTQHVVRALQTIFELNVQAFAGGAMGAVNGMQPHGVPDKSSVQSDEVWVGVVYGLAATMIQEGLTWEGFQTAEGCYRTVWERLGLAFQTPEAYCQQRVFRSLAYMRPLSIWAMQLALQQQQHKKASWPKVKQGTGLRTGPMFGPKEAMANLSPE
Assay: ABP labeling of mutant GBA2 expressed in HEK293T cells
Format: biochemical
Conditions: HEK293T cells expressing mutant GBA2
Experimental: Figure 4 (A) ABP labeling of β‐D‐glucosidases. A lysate of HEK293T cells expressing human GBA, GBA2 and GBA3 was incubated with indicated ABPs (6, 9 or 10) for 30 min at pH 6.0. Fluorescently labeled proteins were visualized after SDS‐PAGE. (B) Labeling with ABP 6 of wild type or mutant GBA2 (E527G nucleophile mutation and D667G acid/base mutation) expressed in HEK293T cells.
Cell culture: HEK293T (CRL‐3216) were purchased from ATCC (Manassas, VA, USA). HEK293T cells were cultured in DMEM medium (Sigma‐Aldrich), supplied with 10 % (v/v) FCS, 0.1 % (w/v) penicillin/streptomycin and 1 % (v/v) Glutamax, under 7 % CO2. […] First the GBA Knockout cells were generated using the annealed oligonucleotides (top strand) 5’‐CACCGCGCTATGAGAGTACACGCAG‐3’ and (bottom strand 5’‐AAACCTGCGTGTACTCTCATAGCGC‐3’ and after ligation in the BbsI site of the px330 and subsequent transfection into the HEK293T cells. Single cells were created and the different clones were analyzed for lack of expression of GBA with enzyme activity assays and ABPs and subsequent genomic sequence analysis. The true GBA knockout cells were next used to create the GBA/GBA2 double knockout cells (using the px330 and the following annealed and ligated oligonucleotides (top strand 5‐CACCGGACGGACTGCTGCAATCCGG‐3’ and bottom strand 5’‐AAACCCGGATTGCAGCAGTCCGTCC‐3’. […]

SMILES: CN1/C(=C/C=C/C=C/C2=[N+](CCCCCC(=O)NCc3cn(CCCCCCCCN4[C@H]5[C@H](O)[C@@H](O)[C@H](O)C[C@H]54)nn3)c3ccccc3C2(C)C)C(C)(C)c2ccccc21 (stereo partly shown) [ABP 6]
- labeling of GBA2 E527G mutant and E527G/D667G double mutant: no longer labeled
